Measurements: US20150025154A1, “OPHTHALMIC COMPOSITION” (ROHTO PHARMACEUTICAL CO., LTD., priority 2012, published 2015)

Legend:
Assay type in all cases: physicochemical
[1] = Test for residual ratio of GGA No. 2: eye drops in LDPE or HDPE eye drop containers, 40° C., 75% RH; settings: Table 6, LDPE and HDPE eye drop containers
Experimental: To a surfactant (POE castor oil and POE hydrogenated castor oil 60) warmed to 65° C., the all-trans form and optionally ascorbyl tetraisopalmitate were added and dissolved under stirring in a hot water bath at 65° C. for 2 minutes. Water at 65° C. was added and each buffer was added under stirring to give a homogeneous solution. The pH and osmotic pressure were adjusted with hydrochloric acid or sodium hydroxide.
Ten mL of each of the thus obtained eye drops was poured into a 13 mL eye drop container (material: low density polyethylene or high density polyethylene; shape: the same as that of the container for Namida Rohto Dry Eye (trade name) (Rohto Pharmaceutical)) with a glass volumetric pipette and the container was sealed.
For these eye drops, the stability test was performed by leaving them to stand in the upright position at 40° C., 75% RH for 2 hours, 8 hours, and 24 hours. The all-trans form content (g/100 mL) in each of the eye drops was quantified by HPLC immediately after the production and after being left to stand for a predetermined period of time, and the residual ratio (%) was calculated.

[2] = Test for residual ratio of GGA No. 1: storage of eye drops in glass or PET containers; settings: Tables 1 to 3, glass and PET containers
Experimental: (§1) In accordance with the measurement conditions for the elution test described in PFSB/ELD Notification No. 0412007 “teprenone 100 mg/g fine granule”, the GGA concentration of each eye drop was determined from the area value of the 5Z-mono-cis form (Ac) and the area value of the all-trans form (At) using Japanese pharmacopoeia “teprenone reference standard (all-trans form:5Z-mono-cis form=about 6:4 (weight ratio), Pharmaceutical and Medical Device Regulatory Science Society of Japan)” or teprenone (Wako Pure Chemical Industries) as a reference standard under the HPLC measurement conditions described below. For the eye drop containing teprenone (all-trans form:5Z-mono-cis form=3:2 (weight ratio)), the GGA content was calculated by summing the amounts of the all-trans form and the 5Z-mono-cis form. […]
A polyethylene terephthalate container (8 mL) (the container for Rohto Dryaid EX, Rohto Pharmaceutical) was completely filled with each of the eye drops in an aseptic manner. […] The teprenone or all-trans form content (g/100 mL) in each of the eye drops was quantified under the HPLC conditions described above immediately after the production and after being left to stand for a predetermined period of time, and the residual ratio (%) was calculated. […]

[3] = Residual ratio of GGA in eye drops held in various plastic or glass containers, 40° C., 75% RH, 2 hours; settings: Table 4, various container materials
Experimental: as §1
Five mL of each of the eye drops was poured into various plastic or glass containers (volume: 10 to 15 mL) with a glass volumetric pipette and the containers were sealed. […] The all-trans form content (g/100 mL) in each of the eye drops was quantified under the HPLC conditions described above immediately after the production and after being left to stand for a predetermined period of time, and the residual ratio (%) was calculated.

Structure (SMILES): CCCCCCCCC(CCCCCC)C(=O)OC[C@H](OC(=O)C(CCCCCC)CCCCCCCC)[C@H]1OC(=O)C(OC(=O)C(CCCCCC)CCCCCCCC)=C1OC(=O)C(CCCCCC)CCCCCCCC (stereo partly drawn) [ascorbyl tetraisopalmitate]
- Effect of added fat-soluble antioxidant on adsorption of GGA to the container wall [1]: reduced adsorption of GGA to the wall of the containers in a dose-dependent manner

Structure (SMILES): Cc1cc(C(C)(C)C)c(O)c(C(C)(C)C)c1 [BHT, butylhydroxytoluene]
- Effect of added fat-soluble antioxidant on loss of the GGA content [2]: greatly reduced the loss of the GGA content

Structure (SMILES): CCCCCCCCCCCCCCCC(=O)OC/C=C(C)/C=C/C=C(C)/C=C/C1=C(C)CCCC1(C)C [retinol palmitate]
- Effect of added fat-soluble antioxidant on loss of the GGA content [3]: greatly reduced the loss of the GGA content
